The values that follow come from patent publication US5858410A, “Pharmaceutical nanosuspensions for medicament administration as systems with increased saturation solubility and rate of solution” (Medac Gesellschaft Fur Klinische Spezialpraparate, priority 1994, dated 1999).

The data set is described as follows: Particle size of suspensions by PCS / laser diffractometer (LD). It counts as physicochemical. An excerpt:
Wet grinding has been employed as a further grinding technique (Sandell, E., Grundriss der Galenischen Pharmazie [Principles of galenical pharmacy], Govi-Verlag GmbH, Frankfurt am Main, 1962), for example using a Premier Mill (Sandell, loc. cit.) or a ball or pearl mill (Hagers Handbuch der pharmazeutischen Praxis [Hagers handbook of pharmaceutical practice], Springer-Verlag, Berlin, 1925). Although a main population of particles in the nanometer range results when a pearl mill is used, a significant proportion of particles larger than 1 μm is still present. […] RNXP 22 was ground (Dispermat) in a pearl mill without addition of surfactant (FIG. 2: A) and with addition of 3% Tween 80 (FIG. 2: A+surfactant). The 50% diameter of the surfactant-free sample is already approx. 2 μm, i.e. 50% of the particles are >2 μm. Some of these micrometer particles can be attributed to agglomeration. As described in the literature (Sandell, loc. cit.; P. H. List, Arzneiformenlehre [Drug forms], Wissenschaftliche Verlagsgesellschaft mbH Stuttgart, 1976; Sucker, H., Speiser, P., Fuchs, P., Pharmazeutische Technologie [Pharmaceutical technology], George Thieme Verlag Stuttgart, 1978; Munzel, K., Buchi, J., Schultz, O.-E., Galenisches Praktikum [Practical galenics], Wissenschaftliche Verlagsgesellschaft mbH Stuttgart, 1959), aggregation in suspensions can be prevented by addition of surfactants (Tween 80, Pluronic F 68) or generally stabilizers (e.g. polyvinylpyrrolidone--PVP, Pluronic F 68). […] As a rule, this is also recommended by manufacturers of mills (e.g. Dyno-Mill, A. Bachoffen AG Maschinenfabrik). Surfactant-stabilized microparticles have also been patented (U.S. Pat. No. 5,246,707), it also being possible for these additionally to comprise iron particles within the microparticles in order to allow location of the particles via magnetic fields.
Another preparation method which has been known for a long time is "via humida paratum", precipitation by pouring a solution of the active compound into a non-solvent (Hagers Handbuch der pharmazeutischen Praxis [Hagers handbook of pharmaceutical practice], Springer-Verlag, Berlin, 1925). By pouring into the non-solvent, the Ostwald Mie range is rapidly passed through and a very fine precipitate separates out. The particles which have precipitated out likewise have a significant proportion in the micrometer range. […] The drug was dissolved in ethanol (3%, 20 ml) and the solution poured into 100 ml of an aqueous surfactant solution (1.2% Pluronic F68). The end of the measuring range is 80 μm, and a large fraction between approx. 18 μm to 80 μm was detected.
The powdered drug (ground in an air jet, particles up to more than 25 μm) was rubbed in a grinding dish with a concentrated surfactant solution for wetting, and the remaining aqua dest. was then added, while stirring. Alternatively, the drug powder can also be introduced into a surfactant solution by stirring. […] The average particle diameter of the parent suspensions (=suspension with 0 cycles), measured with the laser diffractometer, and of the resulting nanosuspensions by PCS (PI=polydispersity index):
Preparation of the suspension and subsequent homogenization as in example 1. […] To monitor the decrease in the particles also in the size range from 1 μm to several μm as a function of the number of cycles, the samples were analysed with the LD. The results were evaluated by plotting the 99% diameter against the number of cycles (FIG. 6). […]

The mark [1] stands for this setting: ground in an air jet, LD (FIG. 1).

In the case of `C[C@@H]1CN(c2nc(N(CCO)CC(C)(C)O)c3nc(-c4ccccc4)c(N4C[C@@H](C)O[C@@H](C)C4)nc3n2)C[C@H](C)O1` [RMKP 22, 4-[N-(2-hydroxy-2-methylpropyl)-ethanolamine]-2.7-bis(cis-2.6-dimethylmorpholin-4-yl)-6-phenyl-pteridine], the “50% LD diameter” value (ground in a pearl mill, surfactant-free sample (FIG. 2: A)) is “approx. 2 μm”. Under setting [1], the “particles >1 μm” value stood at 92%, the “particles in the range below 1,000 nm” value is on record as 8% and the “particles smaller than 25 μm” value amounted to 100%. The “effect of surfactant on diameters of the volume distribution” value (pearl mill, addition of 3% Tween 80 (FIG. 2: A+surfactant)) was “only a slight reduction in the diameters of the volume distribution”.
